Data from patent US9174960B2, “Compounds useful against kinetoplastideae parasites” (CENTRE NATIONAL DE LA RECHERCHE SCIENTIFIQUE, priority 2009, dated 2015).
Where a name gives a salt, the structure may show the parent alone. Read-outs that look alike come from different tables or passages of the source.

Columns and labels:
[1] = tested on: bloodstream forms of T. brucei; conditions: cited from earlier work
[2] = tested on: procyclic forms of T. b. brucei; conditions: cited from earlier work
[3] = tested on: promastigotes of L. major; conditions: cited from earlier work
[4] = Stability of the compound (HPLC analysis, light); format: physicochemical
[5] = tested on: Trypanosoma cruzi, Tulahuen CL, β galactosidase strain (nifurtimox-sensitive); test: In vitro Trypanosoma cruzi assay on MRC-5 cells (CPRG); format: cell-based; conditions: for trypanocidal activity against T. cruzi (in words): in vitro
Description: Trypanosoma cruzi, Tulahuen CL, β galactosidase strain (nifurtimox-sensitive) is used. The strain is maintained on MRC-5SV2 (human lung fibroblast) cells in MEM medium, supplemented with […] L-glutamine, 16.5 mM NaHCO3, and 5% FCSi. All cultures and assays are conducted at 37° C. under an atmosphere of 5% CO2. Assays are performed in sterile 96-well microtiter plates, each well containing 10 μl of the watery compound dilutions together with 190 μl of MRC-5 cell/parasite inoculum (2·10^4 cells/ml±2·10^5 parasites/ml). Parasite growth is compared to untreated-infected controls (100% growth) and non-infected controls (0% growth) after 7 d incubation. Parasite burdens are assessed after adding the substrate CPRG (chlorophenolred β-D-galactopyranoside): 50 μl/well of a stock solution containing 15.2 mg CPRG+250 μl Nonidet in 100 ml PBS. The change in color is measured spectrophotometrically at 540 nm after 4 h incubation at 37° C.

[6] = tested on: Trypanosoma brucei brucei Squib 427 strain (suramin-sensitive); test: In vitro Trypanosoma brucei brucei growth assay (resazurin); format: cell-based
Description: The strain is maintained in Hirumi (HMI-9) medium, supplemented with 10% FCSi. […] After 3 d incubation, parasite growth is assessed fluorimetrically after addition of resazurin. After 24 h at 37° C., fluorescence is measured (λex 550 nm, λem 590 nm).

[7] = tested on: MRC-5SV2 cells; test: Cytotoxicity against human cell lines (resazurin); conditions: human lung fibroblasts MRC-5
[8] = tested on: human African trypanosomiasis (HAT); conditions: cited from earlier work
[9] = tested on: Leishmania infantum MHOM/MA (BE)/67 strain; test: In vitro Leishmania infantum assay, intracellular amastigotes in primary peritoneal mouse macrophages; format: cell-based; conditions: L. infantum amastigotes in mouse macrophages, 5 d incubation, reference drug, read-out: IC50 (50% inhibitory concentration), reduction in parasite burden
Description: (§1) The Leishmania infantum MHOM/MA (BE)/67 strain is used. The strain is maintained in the Golden Hamster and spleen amastigotes are collected for preparing infection inocula. Primary peritoneal mouse macrophages are used as host cell and are collected 2 d after peritoneal stimulation with a 2% potato starch suspension. […] After 5 d incubation, parasite burdens (mean number of amastigotes/macrophage) are microscopically assessed after Giemsa staining.

[10] = tested on: Primary peritoneal mouse macrophages; test: Toxicity against mouse macrophages (host cells of the L. infantum assay); format: cell-based; conditions: mouse macrophages (L. inf)
Description: as §1

[11] = tested on: Trypanosoma brucei brucei CMP (fast strain); test: Trypanocidal activity in vivo in T. brucei-infected mice; conditions: T. brucei-infected Swiss mice
Description: Animals: Swiss mice (female 18-20 g, Janvier, Le Genest St Isle, France) are randomly allocated to groups of 6 animals each. Drinking water and food are available ad libitum throughout the experiment (except when the treatment is given by oral route; in this condition, the treatment is given after 12 h of animal fasting).
Parasite: Trypanosoma brucei brucei CMP (fast strain) is maintained in the laboratory by mechanical intraperitoneal sub-passage every three days in Swiss mice. The infection inoculum is prepared by taking blood collected from a clinically ill donor mouse and diluted in pH 7.2 PBS to obtain an infection inoculum of about 10^5 trypanosomes/ml suspension. Mice are infected by intraperitoneal injection of 0.1 ml of parasite suspension (=10^4 parasites).
Test substances: The reference compound is melarsoprol.
Test compounds are analytically pure compounds.
Formulations: The compounds are formulated in 100% DMSO. Clear solutions should be obtained. The stock solution is divided in aliquots and stored at −20° C. until use. Aliquots are thawed immediately before treatment. The reference compound melarsoprol is formulated in PBS and stored at −20° C.
Treatment: The first dosing with the test compounds was given approx. 3 hours after artificial infection. • Melarsoprol (Arsobal®): 6 infected mice intraperitoneally treated with 1 mg/kg×4 consecutive days. • Test compounds: 6 infected mice per AMTD×1-5 consecutive days. • Controls: 10 infected mice receiving vehicle only (0.1-0.2 ml) Evaluation Parameters:
Parasitemia was checked microscopically from blood collected at the tail of the mice 2 days after the treatment, and every two days until 30 days post-treatment in case of survival. The trypanocidal activity was evaluated by the mean survival time of treated mice for each dose comparatively to survival time of mice treated with the vehicle alone. Treatment was considered to be successful when the mean survival time exceeds 30 days and the mice remains aparasitemic. […] Cure rate are expressed as percentages.

[12] = one single dose at 50 mg/kg i.p.

SMILES	trypanocidal activity against T. cruzi (in words) [5]	trypanocidal activity against T. brucei (in words) [6]	toxicity against mammalian (MRC-5) cells (in words) [7]	also measured
COc1cc(/C=C/C(=O)CC(=O)/C=C/c2ccc(O)c(OC)c2)ccc1O [Curcumin]	–	–	–	cytotoxicity against bloodstream forms of T. brucei relative to procyclic forms [1]: 10 times; LD50 [2]: 46.5 ± 4.9 µM; LD50 [3]: 37.6 ± 3.5 µM
COc1cc(Br)c(O)c(/C=C/C(=O)/C=C/c2cc(OC)cc(Br)c2O)c1 [NW326.4, (1E,4E)-1,5-Bis(3-bromo-2-hydroxy-5-methoxyphenyl)penta-1,4-dien-3-one]	–	–	–	decomposition ([4]; HPLC analysis, after 5 days): 60%
O=C(/C=C/c1ccc(O)c(OC(F)(F)F)c1)/C=C/c1ccc(O)c(OC(F)(F)F)c1 [NW317, (1E,4E)-1,5-Bis(4-hydroxy-3-(trifluoromethoxy)phenyl)penta-1,4-dien-3-one]	–	–	–	light sensitivity (in words) [4]: Light-sensitive
O=C(/C=C/c1ccccn1)/C=C/c1ccccn1 [BJ621]	excellent trypanocidal activity	excellent trypanocidal activity	high cytotoxicity	–
CC1CS(=O)(=O)CCN1/N=C/c1ccc([N+](=O)[O-])o1 (centres unmarked) [Nifurtimox, reference compound]	–	–	–	IC50 ([5]; Trypanosoma cruzi, MRC5, 168 h, T. cruzi Tulahuen CL on MRC-5 cells, 7 d incubation, reference drug, read-out: IC50, reduction in parasite burdens): 0.845 ± 0.2 µM
Nc1nc(N)nc(Nc2ccc([As]3SCC(CO)S3)cc2)n1 (centres unmarked) [melarsoprol]	–	–	–	failure rate after treatment ([8]; late stage case of human African trypanosomiasis): under 7%; overall mortality due to the drug itself ([8]; therapy of late-stage encephalitic disease, patients): more than 5%
O=C(O)[C@@H]1[O][Sb](=[O])([O][Sb]2(=[O])[O][C@H]([C@H](O)CO)[C@H](O)[C@H](C(=O)O)[O]2)[O][C@H]([C@H](O)CO)[C@@H]1O.[Na+].[Na+].[Na+] (some centres unmarked) [Pentostam]	–	–	–	IC50 [9]: 6.8 ± 0.9 µM
O=C1C[C@H](c2ccncc2)S[C@@H](c2ccncc2)C1 (relative stereo) [TG003A23, trans-2,6-di(pyridin-4-yl)dihydro-2H-thiopyran-4(3H)-one]	–	–	much less cytotoxicity	toxicity against mouse macrophages (in words) [10]: much less cytotoxicity
CCCCCCCCCCCCCCCCOP(=O)([O-])OCC[N+](C)(C)C [miltefosine]	–	–	–	IC50 ([9]; Leishmania infantum, Macrophage, 120 h): 5.2 ± 0.8 µM
N#Cc1ccc(/C=C/C(=O)/C=C/c2ccc(C#N)cc2)cc1 [NW307.2, (1E,4E)-1,5-Bis(4-cyanophenyl)penta-1,4-dien-3-one]	excellent activity	excellent activity	without any cytotoxicity	–
COc1ccc(O)c(/C=C/C(=O)/C=C/c2cc(OC)ccc2O)c1 [NW327.2, (1E,4E)-1,5-Bis(2-hydroxy-5-methoxyphenyl)penta-1,4-dien-3-one]	–	–	–	parasitemia [11, 12]: 0%; parasitemia ([11]; two doses over a two days-period, 25 mg/kg i.p.): 0%
O=C(/C=C/c1ccncc1)/C=C/c1ccncc1 [NW319, (1E,4E)-1,5-Di(pyridin-4-yl)penta-1,4-dien-3-one Dihydrochloride]	excellent trypanocidal activity	excellent trypanocidal activity	high cytotoxicity	parasitemia [11, 12]: 0%; parasitemia ([11]; two doses over a two days-period, 12.5 mg/kg i.p.): 0%
O=C(/C=C/c1ccc(OC(F)(F)F)cc1)/C=C/c1ccc(OC(F)(F)F)cc1 [NW254, (1E,4E)-1,5-Bis(4-trifluoromethoxy-phenyl)-penta-1,4-dien-3-one]	excellent antitrypanosomal activities	excellent antitrypanosomal activities	without any toxicity	toxicity against mouse macrophages (in words) [10]: without any toxicity
CN1C(c2ccccc2)CC(=O)CC1c1ccccc1 (stereo not drawn) [NW249.1, meso-1-Methyl-2,6-diphenyl-piperidin-4-one]	–	high trypanocidal activity	low toxicity	toxicity against mouse macrophages (in words) [10]: without any toxicity
COc1cc(/C=C/C(=O)/C=C/c2ccc(O)c(OC)c2)ccc1O [NW300, (1E,4E)-1,5-Bis(4-hydroxy-3-methoxyphenyl)penta-1,4-dien-3-one]	–	excellent antitrypanosomal activity	very high cytotoxicity	–
O=C(/C=C/c1cccnc1)/C=C/c1cccnc1 [NW321, (1E,4E)-1,5-Di(pyridin-3-yl)penta-1,4-dien-3-one Dihydrochloride]	excellent trypanocidal activity	excellent trypanocidal activity	high cytotoxicity	parasitemia [11, 12]: 0%
O=C(/C=C/c1ccc(C(F)(F)F)cc1)/C=C/c1ccc(C(F)(F)F)cc1 [NW267, (1E,4E)-1,5-Bis(4-trifluoromethyl-phenyl)-penta-1,4-dien-3-one]	excellent antitrypanosomal activities	excellent antitrypanosomal activities	without any toxicity	toxicity against mouse macrophages (in words) [10]: without any toxicity
CN1C(c2ccncc2)CC(=O)CC1c1ccncc1 (centres unmarked) [BJ591, 1-Methyl-2,6-di(pyridine-4-yl)piperidin-4-one]	–	–	much less cytotoxicity	toxicity against mouse macrophages (in words) [10]: much less cytotoxicity
